From the NIST ThermoML archive (doi:10.1021/je1003065)
± gives the expanded uncertainty stated by the source.

Assay: mn = molality of the nth substance listed, in mol/kg
Settings: Liquid, Vibrating tube method

[Br-].[Li+] [lithium bromide] + CCO
Settings | mass density [kg/m3]
373.16 K, 5125 kPa, m1 = 0.5972 | 762.2 ± 1.5
373.16 K, 9909 kPa, m1 = 1.462 | 822.87 ± 1.6
373.16 K, 29954 kPa, m1 = 0.2335 | 764.93 ± 1.6
373.16 K, 40172 kPa, m1 = 0.5972 | 798.56 ± 1.6
373.16 K, 49979 kPa, m1 = 0.5972 | 807.22 ± 1.7
373.16 K, 79993 kPa, m1 = 1.462 | 881.25 ± 1.8
373.16 K, 89924 kPa, m1 = 1.462 | 887.37 ± 1.9
373.16 K, 99892 kPa, m1 = 2.272 | 936.43 ± 1.9
373.17 K, 1353 kPa, m1 = 2.272 | 860.5 ± 1.7
373.17 K, 20097 kPa, m1 = 1.462 | 833.45 ± 1.7
373.17 K, 29993 kPa, m1 = 1.462 | 842.95 ± 1.7
373.17 K, 49993 kPa, m1 = 1.462 | 860.02 ± 1.8
373.17 K, 50023 kPa, m1 = 0.2335 | 783.79 ± 1.6
373.17 K, 59801 kPa, m1 = 0.5972 | 815.22 ± 1.7
373.17 K, 99791 kPa, m1 = 1.462 | 893.1 ± 1.9
373.18 K, 4985 kPa, m1 = 2.272 | 864.78 ± 1.7
373.18 K, 9782 kPa, m1 = 2.272 | 870.51 ± 1.8
373.19 K, 19637 kPa, m1 = 2.272 | 879.78 ± 1.8
373.19 K, 29927 kPa, m1 = 2.272 | 888.82 ± 1.8
373.19 K, 39864 kPa, m1 = 2.272 | 896.99 ± 1.8
373.19 K, 40176 kPa, m1 = 1.462 | 851.97 ± 1.7
398.11 K, 79836 kPa, m1 = 2.272 | 910.54 ± 1.9
398.12 K, 10085 kPa, m1 = 1.462 | 801.33 ± 1.6
398.12 K, 39724 kPa, m1 = 2.272 | 879.8 ± 1.8
398.12 K, 49958 kPa, m1 = 2.272 | 888.51 ± 1.8
398.12 K, 59977 kPa, m1 = 2.272 | 896.37 ± 1.8
398.12 K, 69928 kPa, m1 = 2.272 | 903.66 ± 1.9
398.13 K, 5252 kPa, m1 = 1.462 | 795.21 ± 1.6
398.13 K, 29993 kPa, m1 = 2.272 | 870.74 ± 1.8
398.13 K, 39727 kPa, m1 = 3.368 | 934.47 ± 1.9
398.14 K, 9704 kPa, m1 = 2.272 | 848.87 ± 1.7
398.14 K, 9986 kPa, m1 = 2.833 | 879.45 ± 1.8
398.14 K, 19987 kPa, m1 = 3.368 | 916.46 ± 1.8
398.14 K, 20117 kPa, m1 = 2.272 | 860.65 ± 1.7
398.14 K, 29928 kPa, m1 = 0.2335 | 744.1 ± 1.5
398.14 K, 29993 kPa, m1 = 3.368 | 926 ± 1.9
398.14 K, 39959 kPa, m1 = 1.462 | 834.18 ± 1.7
398.14 K, 40001 kPa, m1 = 0.5972 | 779.67 ± 1.6
398.14 K, 49956 kPa, m1 = 2.833 | 917.53 ± 1.9
398.14 K, 89925 kPa, m1 = 2.833 | 945.26 ± 1.9
398.14 K, 99863 kPa, m1 = 0.5972 | 827.19 ± 1.9
398.15 K, 1326 kPa, m1 = 2.833 | 868.98 ± 1.7
398.15 K, 1425 kPa, m1 = 0.9499 | 756.04 ± 1.5
398.15 K, 2012 kPa, m1 = 3.368 | 896.84 ± 1.8
398.15 K, 2214 kPa, m1 = 1.462 | 790.21 ± 1.6
398.15 K, 2451 kPa, m1 = 0.2335 | 705.58 ± 1.4
398.15 K, 2804 kPa, m1 = 0.5972 | 733.32 ± 1.5
398.15 K, 5002 kPa, m1 = 2.833 | 873.54 ± 1.8
398.15 K, 5024 kPa, m1 = 0.2335 | 709.8 ± 1.4
398.15 K, 5025 kPa, m1 = 0.9499 | 761.36 ± 1.5
398.15 K, 9911 kPa, m1 = 3.368 | 905.89 ± 1.8
398.15 K, 9986 kPa, m1 = 0.9499 | 768.11 ± 1.6
398.15 K, 10023 kPa, m1 = 0.2335 | 717.61 ± 1.5
398.15 K, 19859 kPa, m1 = 1.462 | 812.89 ± 1.6
398.15 K, 19923 kPa, m1 = 0.9499 | 780.63 ± 1.6
398.15 K, 19925 kPa, m1 = 2.833 | 890.37 ± 1.8
398.15 K, 29784 kPa, m1 = 0.9499 | 791.83 ± 1.6
398.15 K, 29946 kPa, m1 = 1.462 | 823.95 ± 1.7
398.15 K, 29996 kPa, m1 = 0.5972 | 769.06 ± 1.6
398.15 K, 39926 kPa, m1 = 0.9499 | 802.25 ± 1.6
398.15 K, 39941 kPa, m1 = 0.2335 | 754.26 ± 1.6
398.15 K, 40021 kPa, m1 = 2.833 | 909.38 ± 1.8
398.15 K, 49925 kPa, m1 = 1.462 | 843.34 ± 1.7
398.15 K, 49926 kPa, m1 = 3.368 | 942.62 ± 1.9
398.15 K, 49931 kPa, m1 = 0.2335 | 764.05 ± 1.6
398.15 K, 49993 kPa, m1 = 0.5972 | 789.19 ± 1.7
398.15 K, 50024 kPa, m1 = 0.9499 | 811.67 ± 1.7
398.15 K, 59926 kPa, m1 = 0.9499 | 820.12 ± 1.7
398.15 K, 59926 kPa, m1 = 2.833 | 925.07 ± 1.9
398.15 K, 69784 kPa, m1 = 0.9499 | 827.92 ± 1.8
398.15 K, 69953 kPa, m1 = 0.2335 | 781.36 ± 1.7
398.15 K, 69979 kPa, m1 = 0.5972 | 805.77 ± 1.7
398.15 K, 79787 kPa, m1 = 0.5972 | 813.07 ± 1.8
398.15 K, 79935 kPa, m1 = 0.9499 | 835.45 ± 1.8
398.15 K, 80002 kPa, m1 = 2.833 | 938.86 ± 1.9
398.15 K, 89921 kPa, m1 = 0.2335 | 795.82 ± 1.8
398.15 K, 89936 kPa, m1 = 0.9499 | 842.54 ± 1.8
398.15 K, 89963 kPa, m1 = 2.272 | 917.33 ± 1.9
398.15 K, 89994 kPa, m1 = 0.5972 | 820.32 ± 1.8
398.15 K, 99021 kPa, m1 = 0.9499 | 848.81 ± 1.9
398.15 K, 99624 kPa, m1 = 0.2335 | 802.67 ± 1.9
398.15 K, 99816 kPa, m1 = 1.462 | 879.34 ± 1.9
398.15 K, 99985 kPa, m1 = 2.833 | 951.65 ± 1.9
398.15 K, 100000 kPa, m1 = 3.368 | 976.03 ± 2
398.16 K, 5023 kPa, m1 = 3.368 | 900.37 ± 1.8
398.16 K, 19941 kPa, m1 = 0.5972 | 757.12 ± 1.5
398.16 K, 19974 kPa, m1 = 0.2335 | 731.71 ± 1.5
398.16 K, 29947 kPa, m1 = 2.833 | 900.32 ± 1.8
398.16 K, 60031 kPa, m1 = 1.462 | 851.51 ± 1.8
398.16 K, 60122 kPa, m1 = 3.368 | 950.15 ± 1.9
398.16 K, 69784 kPa, m1 = 2.833 | 932.03 ± 1.9
398.16 K, 69947 kPa, m1 = 1.462 | 859.16 ± 1.8
398.16 K, 69957 kPa, m1 = 3.368 | 956.94 ± 1.9
398.16 K, 79919 kPa, m1 = 3.368 | 963.47 ± 1.9
398.16 K, 80014 kPa, m1 = 0.2335 | 788.79 ± 1.8
398.16 K, 89928 kPa, m1 = 1.462 | 872.71 ± 1.8
398.16 K, 89993 kPa, m1 = 3.368 | 969.83 ± 2
398.17 K, 5071 kPa, m1 = 0.5972 | 736.75 ± 1.5
398.17 K, 9730 kPa, m1 = 0.5972 | 743.51 ± 1.5
398.17 K, 59907 kPa, m1 = 0.5972 | 797.77 ± 1.7
398.17 K, 59978 kPa, m1 = 0.2335 | 773.47 ± 1.7
398.18 K, 1833 kPa, m1 = 2.272 | 839.1 ± 1.7
398.18 K, 80059 kPa, m1 = 1.462 | 866.49 ± 1.8
398.19 K, 99619 kPa, m1 = 2.272 | 923.71 ± 1.9
398.22 K, 4702 kPa, m1 = 2.272 | 842.75 ± 1.7
